In publication PMC5905968, “Evaluation of the fusion inhibitor P3 peptide as a potential microbicide to prevent HIV transmission in women” (PLoS ONE, 2018):

Columns and labels:
[1] = test system: Bacillus subtilis ATCC 6633; test: Anti-bacterial activity, MIC by agar diffusion; format: cell-based; conditions: disks, Mueller-Hinton agar, 37°C, maximum concentration tested 228.4 μM
Experimental: (§1) Anti-bacterial activity of P3 was determined according to CLSI guidelines. The following bacteria were used: reference strains E. coli ATCC 10536, Staphylococcus aureus ATCC 6538, Bacillus subtilis ATCC 6633 and Enterococcus faecalis ATCC 29212; clinical strains of E. coli and Pseudomonas aeruginosa isolated in our laboratory; and strains of Lactobacillus rhamnosus and Lactobacillus plantarum also isolated in our laboratory. The Minimum Inhibitory Concentration (MIC) was determined by the agar diffusion method, in plates of Mueller-Hinton agar or Rogosa agar (for Lactobacilli). Briefly, 10^8cfu/ml bacterial suspensions were prepared in sterile water and spread in the culture media. Sterile disks containing different concentrations of P3 were placed on the inoculated surface. Plates were incubated at 37°C for 24h or 48h. Lactobacilli were incubated at microaerophilic conditions. A negative control made of sterile water was used. Disks of amoxicillin and imipenem were used as positive controls.

[2] = test system: E. coli (clinical strain); test: Anti-bacterial activity, MIC by agar diffusion; format: cell-based; conditions: disks, Mueller-Hinton agar, 37°C, maximum concentration tested 228.4 μM
Experimental: as §1

E. coli ATCC 10536 = test: Anti-bacterial activity, MIC by agar diffusion; format: cell-based; conditions: disks, Mueller-Hinton agar, 37°C, maximum concentration tested 228.4 μM
Experimental: as §1

[3] = test system: Enterococcus faecalis ATCC 29212; test: Anti-bacterial activity, MIC by agar diffusion; format: cell-based; conditions: disks, Mueller-Hinton agar, 37°C, maximum concentration tested 228.4 μM
Experimental: as §1

Lactobacillus plantarum = test: Anti-bacterial activity, MIC by agar diffusion; format: cell-based; conditions: disks, Rogosa agar, 37°C, microaerophilic, maximum concentration tested 228.4 μM
Experimental: as §1

Lactobacillus rhamnosus = test: Anti-bacterial activity, MIC by agar diffusion; format: cell-based; conditions: disks, Rogosa agar, 37°C, microaerophilic, maximum concentration tested 228.4 μM
Experimental: as §1

[4] = test system: Pseudomonas aeruginosa (clinical strain); test: Anti-bacterial activity, MIC by agar diffusion; format: cell-based; conditions: disks, Mueller-Hinton agar, 37°C, maximum concentration tested 228.4 μM
Experimental: as §1

[5] = test system: Staphylococcus aureus ATCC 6538; test: Anti-bacterial activity, MIC by agar diffusion; format: cell-based; conditions: disks, Mueller-Hinton agar, 37°C, maximum concentration tested 228.4 μM
Experimental: as §1

[6] = test system: vaginal epithelium of BALB/c mice; test: BALB/c mice vaginal irritation test with histological score; format: in vivo; set-up: key to Epithelial lesion / Inflammatory infiltrate / Vascular congestion / Edema/fibrosis / Total Score: 0 (no change) when no injury or the observed changes were within normal range; 1 (minimum) when changes were sparse but exceeded those considered normal; 2 (light) when injuries were identifiable but with no severity; 3 (moderate) for significant injury that could increase in severity; 4 (very serious) for very serious injuries that occupy most of the analyzed tissue; conditions: for Edema/fibrosis / Epithelial lesion / Inflammatory infiltrate / Vascular congestion / Total Score: 7 days; for Total Score: sum of the four lesion scores
Experimental: Female BALB/c mice (6–8 weeks-old) (Charles River Laboratories, Wilmington, MA) were pretreated subcutaneously with 2mg of medroxyprogesterone acetate (Depo-Provera; Pfizer, NY, USA) in PBS (Lonza, Verviers, Belgium). After five days, 30μl of test formulation with different doses of P3 diluted in PBS was applied intravaginally daily for 7 days by vaginal gavage to animals previously anesthetized with isoflurane (Forane, Abbott, Madrid). Controls included mice that received PBS (placebo group) and 3% nonoxynol-9 (N9) in PBS (irritation control group). On the eighth day, mice were sacrificed and genital tract tissue were extracted and fixed in 4% paraformaldehyde for histological analysis. The animals were distributed in groups of three mice each: group placebo only treated with PBS (1–3), group A treated with dose of 0.06mg/day ([…]) of P3 in PBS (4–6), group B treated with dose of 0.2mg/day (1522.7 μM) of P3 in PBS (7–9), group C treated with dose of 0.4mg/day (3045.3 μM) of P3 in PBS (10–12) and group irritation control treated with 3% N9 in PBS (13–15).
The presence of histological lesions in the mouse vaginas was evaluated with hematoxylin-eosin staining. Samples were embedded in paraffin by submersion in increasing concentrations of ethanol in water (Rectapur, VWR, England), two baths of xylene (Analar (VWR, England) and another of paraffin, before being placed in a paraffin mold. Subsequently, they were cut using a semimotorized microtome (RM2145 Leica, Germany) and processed for staining. For dewaxing, samples were submersed into two baths of xylene solution (10 min) and three baths in descending order of ethanol (100%, 90% and 70%) (5 min), before being stained with hematoxylin (Merck, Germany) for 5 min and eosin (Merck, Germany) for another 5 min. Post-eosin staining dehydration was performed with passages in increasing concentrations of ethanol (70%, 90% and 100%) and a bath of xylene solution. Finally, they were mounted with D.P.X. (Prolabo, VWR, Spain).
The existence of injury in vaginal epithelium, inflammatory infiltrate, vascular congestion and/or edema in the submucosa was evaluated in each biological sample. The values (score) assigned for each of these lesions were: 0 (no change) when no injury or the observed changes were within normal range; 1 (minimum) when changes were sparse but exceeded those considered normal; 2 (light) when injuries were identifiable but with no severity; 3 (moderate) for significant injury that could increase in severity; 4 (very serious) for very serious injuries that occupy most of the analyzed tissue. These values were added up and determined the level of vaginal irritation as minimum 1–4, average 5–8, moderate 9–11 and severe 12–16 [34].

[7] = 456 μM/day P3 in PBS intravaginally, mouse 4
[8] = 456 μM/day P3 in PBS intravaginally, mouse 5
[9] = 456 μM/day P3 in PBS intravaginally, mouse 6
[10] = 1522.7 μM/day P3 in PBS intravaginally, mouse 7
[11] = 1522.7 μM/day P3 in PBS intravaginally, mouse 8
[12] = 1522.7 μM/day P3 in PBS intravaginally, mouse 9
[13] = 3045.3 μM/day P3 in PBS intravaginally, mouse 10
[14] = 3045.3 μM/day P3 in PBS intravaginally, mouse 11
[15] = 3045.3 μM/day P3 in PBS intravaginally, mouse 12

CC[C@H](C)[C@H](NC(=O)[C@H](CC(N)=O)NC(=O)[C@H](C)NC(=O)[C@H](CCC(=O)O)NC(=O)[C@H](CC(C)C)NC(=O)[C@H](Cc1ccc(O)cc1)NC(=O)[C@H](CCCNC(=N)N)NC(=O)[C@@H](NC(=O)[C@H](CCC(N)=O)NC(=O)[C@H](CCC(N)=O)NC(=O)[C@H](CCC(=O)O)NC(=O)[C@H](Cc1c[nH]c2ccccc12)NC(=O)[C@H](CCC(=O)O)NC(=O)[C@H](CCC(N)=O)NC(=O)[C@H](Cc1c[nH]c2ccccc12)NC(C)=O)C(C)C)C(=O)N[C@@H](CO)C(=O)N[C@@H](CCC(N)=O)C(=O)N[C@@H](CCCNC(=N)N)C(=O)N[C@@H](CC(C)C)C(=O)N[C@@H](CCC(=O)O)C(=O)N[C@@H](CCC(N)=O)C(=O)N[C@@H](C)C(=O)N[C@@H](CCC(N)=O)C(=O)N[C@H](C(=O)N[C@@H](CCC(N)=O)C(=O)N[C@@H](CCC(N)=O)C(=O)N[C@@H](CCC(=O)O)C(=O)N[C@@H](CCCCN)C(=O)N[C@@H](CC(N)=O)C(=O)N[C@@H](CCSC)C(=O)N[C@@H](Cc1ccc(O)cc1)C(=O)N[C@@H](CCC(=O)O)C(=O)N[C@@H](CC(C)C)C(=O)N[C@@H](CCC(N)=O)C(N)=O)[C@@H](C)CC [P3] showed an MIC [1] greater than 228.4 µM, an MIC [2] greater than 228.4 µM and an MIC (E. coli ATCC 10536) greater than 228.4 µM. For the same compound, the MIC [3] was greater than 228.4 µM, the MIC (Lactobacillus plantarum) was greater than 228.4 µM and the MIC (Lactobacillus rhamnosus) was greater than 228.4 µM. It also gave an MIC [4] greater than 228.4 µM, an MIC [5] greater than 228.4 µM and an Edema/fibrosis [6, 7] of 0. The Epithelial lesion [6, 7] was 1, the Inflammatory infiltrate [6, 7] was 0 and the Vascular congestion [6, 7] was 1. For the same compound, the “Total Score” value [6, 7] was 2, the Edema/fibrosis [6, 8] was 1 and the Epithelial lesion [6, 8] was 1. The Inflammatory infiltrate [6, 8] was 1, the Vascular congestion [6, 8] was 0 and the “Total Score” value [6, 8] was 3. For the same compound, the Edema/fibrosis [6, 9] was 0, the Epithelial lesion [6, 9] was 0 and the Inflammatory infiltrate [6, 9] was 0. For the same compound, the Vascular congestion [6, 9] was 0, the “Total Score” value [6, 9] was 0 and the Edema/fibrosis [6, 10] was 0. It also gave an Epithelial lesion [6, 10] of 1, an Inflammatory infiltrate [6, 10] of 1 and a Vascular congestion [6, 10] of 1. The “Total Score” value [6, 10] was 3, the Edema/fibrosis [6, 11] was 0 and the Epithelial lesion [6, 11] was 0. For the same compound, the Inflammatory infiltrate [6, 11] was 0, the Vascular congestion [6, 11] was 1 and the “Total Score” value [6, 11] was 1. The Edema/fibrosis [6, 12] was 0, the Epithelial lesion [6, 12] was 0 and the Inflammatory infiltrate [6, 12] was 2. The Vascular congestion [6, 12] was 2, the “Total Score” value [6, 12] was 4 and the Edema/fibrosis [6, 13] was 0. It also gave an Epithelial lesion [6, 13] of 4, an Inflammatory infiltrate [6, 13] of 3 and a Vascular congestion [6, 13] of 3. It also gave an Edema/fibrosis [6, 14] of 0, an Epithelial lesion [6, 14] of 2 and an Inflammatory infiltrate [6, 14] of 0. The Vascular congestion [6, 14] was 1, the “Total Score” value [6, 14] was 3 and the Edema/fibrosis [6, 15] was 1. It also gave an Epithelial lesion [6, 15] of 4, an Inflammatory infiltrate [6, 15] of 2 and a Vascular congestion [6, 15] of 2. For the same compound, the “injuries (histology)” value ([6]; group A, 0.06 mg/day (456.8 μM) P3, 7 days) was “minimal or even absent”, the “level of irritation of the vaginal wall” value ([6]; group B, 0.2 mg/day (1522.7 μM) P3, 7 days) was “minimal” and the “score of vaginal irritation” value ([6]; group C, 0.4 mg/day (3045.3 μM) P3, 7 days, mice 10 and 12) was “moderate (moderate 9–11)”. The “irritation of the vaginal epithelium” value ([6]; group C, 0.4 mg/day (3045.3 μM) P3, 7 days, the other mouse (sample 11)) was “minimal”.
